From patent publication US4510143A, “Antiallergic pyrimido[1,2-a]quinoxalin-2-carboxylic acid derivatives” (Roussel Uclaf, priority 1982, dated 1985)

Tested on: passive cutaneous reaction mediated by Ig G antibodies
Assay: Passive cutaneous anaphylaxis in the rat (PCR), inhibition of Ig G PCR after oral administration
Format: in vivo
Details: male Wistar rats, 4 hour sensitization, 1 mg ovalbumen challenge
Procedure: Passive cutaneous anaphylaxis in the rat (PCR)
Passive cutaneous anaphylaxis in the rat was carried out in male Wistar rats weighing 180-200 g which were sensitized by intradermal injection into four sites on shaved backs to produce a passive cutaneous reaction mediated by Ig G antibodies (a 4 hour sensitization following injection of antiserum heated at 56° C. for one hour). Antigen challenge was carried out in the same way with 1 mg of ovalbumen together with 0.5 ml of 1% Evans blue dye solution being injected intravenously and 30 minutes later, the animals were killed and the severity and area of each blue spot was scored when viewed from the reverse side of the skin.

Row | SMILES | % inhibition of Ig G PCR (1 mg/kg) [%] | % inhibition of Ig G PCR (10 mg/kg) [%] | % inhibition of Ig G PCR (0.1 mg/kg) [%]
1 | O=C(O)c1cnc2cnc3ccccc3n2c1=O [Example 1, 1-oxo-1H-pyrimido[1,2-a]quinoxaline-2-carboxylic acid] | 9.9 | 50.3 | –
2 | O=C(Nc1nnn[nH]1)c1cnc2cnc3ccccc3n2c1=O [Example 2, N-(5-Tetrazolyl)-1-oxo-1H-pyrimido[1,2-a]quinoxaline-2-carboxamide] | 29.9 | 48.6 | –
3 | O=C(O)c1cnc2c(=O)[nH]c3ccccc3n2c1=O [Example 8, 1,5-dioxo-1,6-dihydropyrimido[1,2-a]quinoxalin-2-carboxylic acid] | 52.4 | 94.1 | 40.5
4 | O=C(Nc1nn[nH]n1)c1cnc2c(=O)[nH]c3ccccc3n2c1=O [Example 9] | 23 | 35 | 19
5 | Cn1c(=O)c2ncc(C(=O)O)c(=O)n2c2ccccc21 [Example 10] | 15.6 | 20.5 | –
